According to US6596734B1, “Tetrahydroisoquinoline compounds for use as β3-adrenoreceptor agonists” (Molecular Design International, Inc., priority 2001, dated 2003):
Where a name gives a salt, the structure may show the parent alone.

Key:
[1] = target: T1, human β1-adrenoreceptor (Homo sapiens, UniProt P08588); experiment: cAMP radioimmunoassay in CHO cells expressing human β1-adrenoreceptor; assay type: cell-based; settings: maximal response relative to standard reference agonist (isoproterenol = 100%), na = not active, read-out: h-β1 cAMP Max %
T1 construct: expressed in transfected cells; host or cells: CHO cells
Description: (§1) Chinese Hamster Ovary (CHO) cells expressing either human β1-, β2-, or β3-adrenoreceptor subtypes were used. Varying concentrations of each compound were added to the incubated cells and the cyclic AMP (cAMP) generated within the cells was extracted, and determined using a radioimmunoassay. Effective concentration-50 (EC-50) values were measured as the concentration (in nanomolar) of each drug that gave 50% of its maximum cAMP response. The maximal response (Max %) of each tested drug is expressed as a ratio of the drug response to that of a standard reference agonist (e.g., isoproterenol (Max %=100%)). If a compound has no activity for increasing cAMP at the highest concentration used, it is designated as “not active” or “na” in Table I below, which summarizes the testing results. See Konkar et al., Journal of Pharmacology and Experimental Therapeutics 291:875-883 (1999).

[2] = target: T2, human β2-adrenoreceptor (Homo sapiens, UniProt P07550); experiment: cAMP radioimmunoassay in CHO cells expressing human β2-adrenoreceptor; assay type: cell-based; settings: maximal response relative to standard reference agonist (isoproterenol = 100%), na = not active, read-out: h-β2 cAMP Max %
T2 construct: expressed in transfected cells; host or cells: CHO cells
Description: as §1

[3] = target: T3, human β3-adrenoreceptor (Homo sapiens, UniProt P13945); experiment: cAMP radioimmunoassay in CHO cells expressing human β3-adrenoreceptor; assay type: cell-based; settings: for EC50: concentration giving 50% of the drug's maximum cAMP response, na = not active at highest concentration used, read-out: h-β3 cAMP EC50; for Emax: maximal response relative to standard reference agonist (isoproterenol = 100%), na = not active, read-out: h-β3 cAMP Max %
T3 construct: expressed in transfected cells; host or cells: CHO cells
Description: as §1

T3 sequence (P13945 whole entry): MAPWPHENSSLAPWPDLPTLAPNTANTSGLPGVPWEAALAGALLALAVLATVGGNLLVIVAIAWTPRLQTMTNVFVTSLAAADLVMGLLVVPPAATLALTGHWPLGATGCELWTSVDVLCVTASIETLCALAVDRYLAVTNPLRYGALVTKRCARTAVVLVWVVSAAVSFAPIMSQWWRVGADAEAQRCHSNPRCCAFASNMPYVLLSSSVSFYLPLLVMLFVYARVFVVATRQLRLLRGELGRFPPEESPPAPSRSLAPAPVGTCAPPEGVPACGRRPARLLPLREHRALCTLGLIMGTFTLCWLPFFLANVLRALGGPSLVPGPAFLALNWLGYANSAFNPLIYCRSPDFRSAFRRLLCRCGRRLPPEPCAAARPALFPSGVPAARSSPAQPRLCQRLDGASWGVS
T1 sequence (P08588 whole entry): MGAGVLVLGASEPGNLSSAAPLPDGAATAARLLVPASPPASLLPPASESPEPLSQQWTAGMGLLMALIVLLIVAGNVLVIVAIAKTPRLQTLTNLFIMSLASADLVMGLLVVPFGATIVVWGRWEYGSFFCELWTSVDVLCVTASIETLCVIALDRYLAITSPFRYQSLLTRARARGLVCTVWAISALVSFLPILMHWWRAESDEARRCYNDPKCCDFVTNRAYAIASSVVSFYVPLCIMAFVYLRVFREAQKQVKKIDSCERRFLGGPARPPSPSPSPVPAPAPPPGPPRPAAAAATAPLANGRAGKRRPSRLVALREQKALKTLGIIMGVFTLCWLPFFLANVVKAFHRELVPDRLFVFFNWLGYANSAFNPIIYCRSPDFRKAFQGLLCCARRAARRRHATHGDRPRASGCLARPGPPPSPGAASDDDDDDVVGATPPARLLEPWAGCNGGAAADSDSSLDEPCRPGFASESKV
T2 sequence (P07550 whole entry): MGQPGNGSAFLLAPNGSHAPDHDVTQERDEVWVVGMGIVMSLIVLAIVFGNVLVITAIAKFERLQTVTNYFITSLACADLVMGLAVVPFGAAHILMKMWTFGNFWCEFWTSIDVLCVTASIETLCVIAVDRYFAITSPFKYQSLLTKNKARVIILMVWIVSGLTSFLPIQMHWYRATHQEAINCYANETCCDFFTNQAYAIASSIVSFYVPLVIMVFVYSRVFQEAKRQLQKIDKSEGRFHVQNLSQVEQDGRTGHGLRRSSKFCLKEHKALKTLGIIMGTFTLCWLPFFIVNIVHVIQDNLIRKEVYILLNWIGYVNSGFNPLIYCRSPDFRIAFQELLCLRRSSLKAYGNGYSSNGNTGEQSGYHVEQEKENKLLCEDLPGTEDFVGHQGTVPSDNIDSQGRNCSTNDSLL

SMILES	Emax [1] [%]	Emax [2] [%]	EC50 [3] [nM]	Emax [3] [%]	melting point
COc1c(I)cc(CC2NCCc3cc(O)c(NS(C)(=O)=O)cc32)cc1I (centres unmarked)	5	5	3	98	
COc1c(Br)cc(CC2c3cc(NS(C)(=O)=O)c(O)cc3CCN2C)cc1Br (centres unmarked)	16.2	24.1		39.3	
COc1ccc(CC2NCCc3cc(O)c(NS(C)(=O)=O)cc32)cc1 (centres unmarked)				24	
COc1ccc(CC2NCCc3cc(O)c(NS(C)(=O)=O)cc32)cc1OC (centres unmarked)	10.2	15.4	118	76.9	
CS(=O)(=O)Nc1cc2c(cc1O)CCNC2Cc1ccc(Cl)c(Cl)c1 (centres unmarked)			9.91	92	
CS(=O)(=O)Nc1cc2c(cc1N)CCNC2Cc1ccc(Cl)c(Cl)c1 (centres unmarked)	12.6	10.8		2.24	
CS(=O)(=O)Nc1cc2c(cc1O)CCNC2Cc1ccc(F)c(F)c1 (centres unmarked)			24.4	78.3	
CS(=O)(=O)Nc1cc2c(cc1O)CCNC2Cc1cc(F)cc(F)c1 (centres unmarked)			38.8	66.6	
CCS(=O)(=O)Nc1cc2c(cc1O)CCNC2Cc1cc(Br)c(OC)c(Br)c1 (centres unmarked)	8.4		1.51	102	
COc1c(Br)cc(CC2NCCc3cc(O)c(NS(=O)(=O)c4ccccc4)cc32)cc1Br (centres unmarked)	13.1	21.4	35.3	88.2	
COc1c(Br)cc(CC2NCCc3cc(O)c(NS(=O)(=O)c4ccc(F)cc4)cc32)cc1Br (centres unmarked)	8.6	13.5	5.22	90.4	
COc1c(Br)cc(CC2NCCc3cc(O)c(N(S(=O)(=O)c4ccc(F)cc4)S(=O)(=O)c4ccc(F)cc4)cc32)cc1Br (centres unmarked)	12.1	5.8		8.7	
COc1c(Br)cc(CC2NCCc3cc(O)c(NS(=O)(=O)c4ccc(C)cc4)cc32)cc1Br (centres unmarked)	18.1	8	8.46	97.6	
COc1ccc(S(=O)(=O)Nc2cc3c(cc2O)CCNC3Cc2cc(Br)c(OC)c(Br)c2)cc1 (centres unmarked)			8.09	88.3	
COc1c(Br)cc(CC2NCCc3cc(O)c(NS(=O)(=O)c4ccc(OC(F)(F)F)cc4)cc32)cc1Br (centres unmarked)			80.3	65.7	
COc1c(Br)cc(CC2NCCc3cc(O)c(NS(=O)(=O)c4ccc(C(F)(F)F)cc4)cc32)cc1Br (centres unmarked)	13	16.6	29.2	83.3	
COc1c(Br)cc(CC2NCCc3cc(O)c(NS(=O)(=O)Cc4ccccc4)cc32)cc1Br (centres unmarked)			20.9	92.2	
COc1c(Br)cc(CC2NCCc3cc(O)c(NS(=O)(=O)/C=C/c4ccccc4)cc32)cc1Br (centres unmarked)			23.1	96.6	
COc1c(I)cc(CC2NCCc3cc(O)c(NS(=O)(=O)c4ccc(C)cc4)cc32)cc1I (centres unmarked)	5	8	2.9	91	
CCOC(=O)Nc1cc2c(cc1NS(C)(=O)=O)CCNC2Cc1cc(Br)c(OC)c(Br)c1 (centres unmarked)	11	17.2		8.7	
COc1ccc(S(=O)(=O)Nc2cc3c(cc2O)CCNC3Cc2cc(Br)c(OC)c(Br)c2)cc1 (centres unmarked) (as salt: hydrochloride) [Example 4, N-[1-(3,5-dibromo-4-methoxy-benzyl)-6-hydroxy-1,2,3,4-tetrahydro-isoquinolin-7-yl]-4-methoxy-benzenesulfonamide hydrochloride]					226 to 228 °C (dec.)
